Measured values reported in patent publication US11016101B2, “Simplified nuclei analysis platform and biomarker matrix that supports genotoxic mode of action determinations” (Litron Laboratories, Ltd., priority 2013, dated 2021).
“Also recorded” adds a separate entry of the source. Counter-ions that a name gives are not always drawn. Like-named read-outs stand apart in the source and are kept apart here.

Assays:
TK6 cells [1] = experiment: In vitro micronucleus assay (In Vitro MICROFLOW kit)
Protocol: The in vitro micronucleus assay is a chromosomal damage test that is widely used to evaluate chemical and/or physical agents for clastogenic and aneugenic activity. […] Furthermore, in the usual conduct of the in vitro micronucleus assay, the discrimination of bona fide genotoxic activity as primarily occurring through a clastogenic or aneugenic mode of action is not readily obtained.
For these experiments, each of the 20 chemicals was tested over closely spaced concentrations, 6 replicate wells per concentration. Three wells were used for the micronucleus analyses, and three wells were used for the several nuclear biomarker assessments of the type described in Example 1. Other endpoints of cytotoxicity were considered, including […], ethidium monoazide bromide (EMA) positive events as an indicator of membrane integrity, tetramethylrhodamine ethyl ester (TMRE) negative cells as an assessment of mitochondrial membrane potential, and ATP levels (using luciferase) as an assessment of overall cell health in the sample. […] Further details are described under Statistical Analyses, as well as Example 4 below.
Those cytotoxicity evaluations were based on a conventional approach for assessing cytotoxicity in genotoxicity tests, that is, relative cell counts (which in the case of the flow cytometry-based In Vitro MICROFLOW® kit is accomplished by measuring nuclei to counting bead ratio or else nuclei to time ratio and expressing these values relative to the mean solvent control value). […] The remaining three wells per concentration were used to accomplish a series of nuclei biomarker readings according to the invention, as well as two other assessments of cytotoxicity—frequency of TMRE-negative cells and ATP levels (via Promega's CELL TITERGLO® kit).

TK6 cells [2] = experiment: Nuclei to bead ratio (relative cell count, cytotoxicity) by flow cytometry; type: cell-based
TK6 cells [3] = experiment: Cleaved PARP-positive nuclei by flow cytometry; type: cell-based; conditions: for PARP-Positive Nuclei (Fold-Increase): 24-27 hours, relative to Control
Source text: (§1) This chemical was also observed to affect cleaved PARP and Caspase 3 levels in nuclei, as evidenced by the higher values of cleaved PARP- and Caspase 3-positive nuclei relative to solvent control wells.

TK6 cells [4] = experiment: Cleaved caspase 3-positive nuclei by flow cytometry; type: cell-based; conditions: for Caspase 3-Positive Nuclei (Fold-Increase): 24-27 hours, relative to Control
Source text: as §1

TK6 cells [5] = type: cell-based
Protocol: This experiment highlights the ability of the invention to combine multiple nuclei-associated endpoints into one flow cytometric analysis. For this experiment, log-phase TK6 cells were treated with cisplatin over a wide range of concentrations and then incubated at 37° C. for 24 hours. Each concentration was studied in triplicate wells of a 96 well plate. After 24 hours, well contents were pipetted up and down several times to form homogenous suspensions, and 25 μl per well was added to wells of a new 96 well plate that contained 50 μl of working lysis/labeling/staining solution. This lysis/labeling/staining solution was comprised of 5 μl anti-γH2AX-Alexa® 488/ml, 1 μl anti-phospho-H3-PE/ml, 5 μl anti-cleaved PARP-Alexa® 647/ml, 5 μRNase/ml, […] Absolute Count Bead/50 μl

TK6 cells [6] = conditions: human
TK6 cells [7] = conditions: human; remark: listed apart in the source
Protocol: The TK6 cells used in these experiments were from American Type Tissue Collection (ATCC) (Manassas, Va.). Cells were maintained in culture medium at 37° C., 5% CO2, and in a humid atmosphere. Cells were maintained between approximately 1×10^4 and 1×10^6 cells/ml for routine passage.
For these experiments, TK6 cells were treated with solvent (most often DMSO, 1% v/v) and a range of closely spaced test article concentrations. Treatments occurred in wells of a 96-well plate. At the start of treatment, cells were at 2×10^5/ml in a volume of 300 μl per well. Counting beads (PEAK FLOW™) were included in these cultures at a concentration of approximately 1 drop per 10 ml, and served as a means to derive relative nuclei to bead ratios (relative to solvent controls). Continuous treatment occurred for approximately 24 hrs, during which time plates were incubated at 37° C., 5% CO2, and in a humid atmosphere. Each test article concentration was studied in 3 to 6 replicate wells.
The γH2AX endpoint described herein was studied 4 and/or 24-27 hrs after start of treatment. Each of the remaining endpoints were studied at the conclusion of the treatment period, that is 24 to 27 hrs after initiation of exposure to test article (which for this cell line corresponds to approximately 1.5 to 2.0 population doubling times).
At the time of cell harvest (4 hrs and 24 to 27 hrs), cells were resuspended with gentle pipetting and 25 μl aliquots were transferred to wells of a 96 well plate containing 50 μl pre-aliquoted lysis solution.
After incubation at room temperate for at least 5 minutes, samples were analyzed with a dual-laser flow cytometer, 488 nm and 633 nm excitation (FACSCanto II, BD Biosciences, San Jose, Calif.). Instrumentation settings and data acquisition/analysis were controlled with Diva software v6.1.3. […] The BD Biosciences High Throughput Sampler (HTS) attachment was used to automatically analyze each of the samples in the 96 well plate(s). For the majority of these endpoints and experiments, the stop mode was configured such that each well was analyzed for 5 seconds, which usually represented sufficient time to acquire at least 500 NAD-positive nuclei.
Treatments occurred over a range of closely spaced concentrations.

[8] = 24-27 hours after start of treatment
[9] = TK6 cells, continuous exposure 24-27 hrs, In Vitro MICROFLOW kits

With `O=c1[nH]cc(F)c(=O)[nH]1` [5-fluorouracil] the “in vitro micronucleus results” value (TK6 cells [1]) was “positive”.

In the case of `N#CC(C#N)=NNc1cccc(Cl)c1` [CCCP, carbonyl cyanide m-chlorophenyl hydrazone], the “Nuclei to Bead Ratio (% of Control)” value (TK6 cells [2]; CCCP 3.125 μM, TK6 cells, 24-27 hours after start of treatment) is reported as 79 % of Control, the “Nuclei to Bead Ratio (% of Control)” value (TK6 cells [2]; CCCP 4.6875 μM, TK6 cells, 24-27 hours after start of treatment) is reported as 69 % of Control and the “Nuclei to Bead Ratio (% of Control)” value (TK6 cells [2]; CCCP 6.25 μM, TK6 cells, 24-27 hours after start of treatment) is reported as 64 % of Control. The “Nuclei to Bead Ratio (% of Control)” value (TK6 cells [2]; CCCP 9.375 μM, TK6 cells, 24-27 hours after start of treatment) was 59 % of Control, the “Nuclei to Bead Ratio (% of Control)” value (TK6 cells [2]; CCCP 12.5 μM, TK6 cells, 24-27 hours after start of treatment) was 50 % of Control and the “nuclei to bead ratios (effect in words)” value (TK6 cells [2]; TK6 cells, range of closely spaced concentrations, 24-27 hours, indicative of fewer cells and therefore cytotoxicity) was “concentration-dependent reductions”. For the same compound, the “cleaved PARP-positive nuclei relative to solvent control wells (effect in words)” value (TK6 cells [3]; [8]) was “higher values”, the “PARP-Positive Nuclei (Fold-Increase)” value (TK6 cells [3]; CCCP 3.125 μM) was 4.90 Fold-Increase and the “PARP-Positive Nuclei (Fold-Increase)” value (TK6 cells [3]; CCCP 4.6875 μM) was 8.60 Fold-Increase. For the same compound, the “PARP-Positive Nuclei (Fold-Increase)” value (TK6 cells [3]; CCCP 6.25 μM) was 12.1 Fold-Increase, the “PARP-Positive Nuclei (Fold-Increase)” value (TK6 cells [3]; CCCP 9.375 μM) was 20.75 Fold-Increase and the “PARP-Positive Nuclei (Fold-Increase)” value (TK6 cells [3]; CCCP 12.5 μM) was 34.45 Fold-Increase. The “cleaved Caspase 3-positive nuclei relative to solvent control (effect in words)” value (TK6 cells [4]; [8]) was “visibly increased; also recorded: higher values”, the “Caspase 3-Positive Nuclei (Fold-Increase)” value (TK6 cells [4]; CCCP 3.125 μM) was 2.63 Fold-Increase and the “Caspase 3-Positive Nuclei (Fold-Increase)” value (TK6 cells [4]; CCCP 4.6875 μM) was 4.33 Fold-Increase. The “Caspase 3-Positive Nuclei (Fold-Increase)” value (TK6 cells [4]; CCCP 6.25 μM) was 5.86 Fold-Increase, the “Caspase 3-Positive Nuclei (Fold-Increase)” value (TK6 cells [4]; CCCP 9.375 μM) was 9.13 Fold-Increase and the “Caspase 3-Positive Nuclei (Fold-Increase)” value (TK6 cells [4]; CCCP 12.5 μM) was 18.83 Fold-Increase. For the same compound, the “in vitro micronucleus results” value (TK6 cells [1]; [9]) was “positive”.

For `N.N.[Cl][Pt][Cl]` [Cisplatin, cisplatin], the “absolute and relative nuclei counts (effect in words)” value (TK6 cells [5]) was “reduced in a cisplatin concentration-dependent manner”, the “anti-cleaved PARP positive chromatin (effect in words)” value (TK6 cells [5]) was “increased in a cisplatin concentration-dependent manner” and the “anti-phospho-H3 positive nuclei (effect in words)” value (TK6 cells [5]) was “reduced in a cisplatin concentration-dependent manner”. For the same compound, the “other changes to cell cycle (effect in words)” value (TK6 cells [5]) was “accumulation of cells in the G2/M phase”, the “shift in anti-γH2AX-associated fluorescence (effect in words)” value (TK6 cells [5]) was “increased in a cisplatin concentration-dependent manner” and the “in vitro micronucleus results” value (TK6 cells [1]) was “positive”.

For `COS(C)(=O)=O` [MMS, methyl methanesulfonate], the “nuclei to bead ratios (effect in words)” value (TK6 cells [2]) was “concentration-dependent reductions”, the “Nuclei to Bead Ratio (% of Control)” value (TK6 cells [2]; human, 2.344 μg/ml) was 88 % of Control and the “Nuclei to Bead Ratio (% of Control)” value (TK6 cells [2]; human, 3.125 μg/ml) was 87 % of Control. The “Nuclei to Bead Ratio (% of Control)” value (TK6 cells [2]; human, 4.6875 μg/ml) was 83 % of Control, the “Nuclei to Bead Ratio (% of Control)” value (TK6 cells [2]; human, 6.25 μg/ml) was 78 % of Control and the “Nuclei to Bead Ratio (% of Control)” value (TK6 cells [2]; human, 9.375 μg/ml) was 64 % of Control. The “Nuclei to Bead Ratio (% of Control)” value (TK6 cells [2]; human, 12.5 μg/ml) was 58 % of Control, the “Phospho-H3+ Nuclei (Fold-Increase)” value (TK6 cells [6]; 2.344 μg/ml) was 1.00 Fold-Increase and the “Phospho-H3+ Nuclei (Fold-Increase)” value (TK6 cells [6]; 3.125 μg/ml) was 0.76 Fold-Increase. The “Phospho-H3+ Nuclei (Fold-Increase)” value (TK6 cells [6]; 4.6875 μg/ml) was 0.67 Fold-Increase, the “Phospho-H3+ Nuclei (Fold-Increase)” value (TK6 cells [6]; 6.25 μg/ml) was 0.71 Fold-Increase and the “Phospho-H3+ Nuclei (Fold-Increase)” value (TK6 cells [6]; 9.375 μg/ml) was 0.76 Fold-Increase. The “Phospho-H3+ Nuclei (Fold-Increase)” value (TK6 cells [6]; 12.5 μg/ml) was 0.65 Fold-Increase, the “in vitro micronucleus results” value (TK6 cells [1]) was “positive” and the “γH2AX Fluorescence (Fold-Increase)” value (TK6 cells [7]; 2.344 μg/ml) was 3.13 Fold-Increase. For the same compound, the “γH2AX Fluorescence (Fold-Increase)” value (TK6 cells [7]; 3.125 μg/ml) was 4.11 Fold-Increase, the “γH2AX Fluorescence (Fold-Increase)” value (TK6 cells [7]; 4.6875 μg/ml) was 4.36 Fold-Increase and the “γH2AX Fluorescence (Fold-Increase)” value (TK6 cells [7]; 6.25 μg/ml) was 4.92 Fold-Increase. The “γH2AX Fluorescence (Fold-Increase)” value (TK6 cells [7]; 9.375 μg/ml) was 4.79 Fold-Increase and the “γH2AX Fluorescence (Fold-Increase)” value (TK6 cells [7]; 12.5 μg/ml) was 4.80 Fold-Increase.

`CC[C@]1(O)C[C@@H]2CN(CCc3c([nH]c4ccccc34)[C@@](C(=O)OC)(c3cc4c(cc3OC)N(C)[C@H]3[C@@](O)(C(=O)OC)[C@H](OC(C)=O)[C@]5(CC)C=CCN6CC[C@]43[C@@H]65)C2)C1` [Vinblastine, vinblastine] was tested, and the “nuclei to bead ratios (effect in words)” value (TK6 cells [2]) was “concentration-dependent reductions”, the “Nuclei to Bead Ratio (% of Control)” value (TK6 cells [2]; human, 0.3 ng/ml) was 98 % of Control and the “Nuclei to Bead Ratio (% of Control)” value (TK6 cells [2]; human, 0.4 ng/ml) was 97 % of Control. The “Nuclei to Bead Ratio (% of Control)” value (TK6 cells [2]; human, 0.6 ng/ml) was 86 % of Control, the “Nuclei to Bead Ratio (% of Control)” value (TK6 cells [2]; human, 0.8 ng/ml) was 81 % of Control and the “Nuclei to Bead Ratio (% of Control)” value (TK6 cells [2]; human, 1.2 ng/ml) was 71 % of Control. The “Nuclei to Bead Ratio (% of Control)” value (TK6 cells [2]; human, 1.6 ng/ml) was 58 % of Control, the “Phospho-H3+ Nuclei (Fold-Increase)” value (TK6 cells [6]; 0.3 ng/ml) was “.86 Fold-Increase” and the “Phospho-H3+ Nuclei (Fold-Increase)” value (TK6 cells [6]; 0.4 ng/ml) was “.86 Fold-Increase”. The “Phospho-H3+ Nuclei (Fold-Increase)” value (TK6 cells [6]; 0.6 ng/ml) was 1.23 Fold-Increase, the “Phospho-H3+ Nuclei (Fold-Increase)” value (TK6 cells [6]; 0.8 ng/ml) was 2.11 Fold-Increase and the “Phospho-H3+ Nuclei (Fold-Increase)” value (TK6 cells [6]; 1.2 ng/ml) was 4.85 Fold-Increase. For the same compound, the “Phospho-H3+ Nuclei (Fold-Increase)” value (TK6 cells [6]; 1.6 ng/ml) was 5.41 Fold-Increase and the “in vitro micronucleus results” value (TK6 cells [1]) was “positive”.

With `C[C@@]1(CO)[C@H](O)CC[C@@]2(C)[C@H]1CC[C@H]1C[C@@H]3C[C@@]12CC[C@]3(O)CO` [aphidicoline] the “in vitro micronucleus results” value (TK6 cells [1]; [9]) was “positive”.

For `Nc1ccn([C@@H]2O[C@H](CO)[C@@H](O)[C@@H]2O)c(=O)n1` [arabinofuranosyl cytidine], the “in vitro micronucleus results” value (TK6 cells [1]; [9]) was “positive”.

In the case of `CC[C@@]1(O)C(=O)OCc2c1cc1n(c2=O)Cc2cc3ccccc3nc2-1` [camptothecin], the “in vitro micronucleus results” value (TK6 cells [1]; [9]) is reported as “positive”.

In the case of `COC(=O)Nc1nc2ccccc2[nH]1` [carbendazim], the “in vitro micronucleus results” value (TK6 cells [1]) is reported as “positive”.

With `CC/C(=C(/CC)c1ccc(O)cc1)c1ccc(O)cc1` [diethylstilbestrol] the “in vitro micronucleus results” value (TK6 cells [1]; [9]) was “positive”.

For `COc1cc([C@@H]2c3cc4c(cc3[C@@H](O[C@@H]3O[C@@H]5CO[C@@H](C)O[C@H]5[C@H](O)[C@H]3O)[C@H]3COC(=O)[C@H]23)OCO4)cc(OC)c1O` [etoposide], the “in vitro micronucleus results” value (TK6 cells [1]) was “positive”.

With `NC(=O)NO` [hydroxyurea] the “in vitro micronucleus results” value (TK6 cells [1]) was “positive”.

For `COc1ccc(C2=N[C@@H](c3ccc(Cl)cc3)[C@@H](c3ccc(Cl)cc3)N2C(=O)N2CCNC(=O)C2)c(OC(C)C)c1` [nutlin-3], the “in vitro micronucleus results” value (TK6 cells [1]; [9]) was “positive”.

For `[H]/N=C(/N)N/C(=N/[H])NCCc1ccccc1` [phenformin HCl], the “in vitro micronucleus results” value (TK6 cells [1]; [9]) was “positive”.

For tunicamycin, the “in vitro micronucleus results” value (TK6 cells [1]; [9]) was “positive”.
